The subject of this assay is secretion of acidic gastric juice stimulated with histamine. The assay can be described thus: Inhibition of histamine-stimulated secretion of acidic gastric juice in dogs with a Heidenhain pouch, single intravenous injection. In kind it is in vivo, dog. The conditions noted are these: column fractions or products assayed in histamine-stimulated pouch dogs. As for the experimental part: This test is used to determine the biological potency of the products, which is defined as the amount of the product expressed in μg./kg. which, on administration by intravenous injection to a dog provided with a Heidenhain pouch and whose secretion of gastric acid is stimulated to 60-89% of the maximum level of secretion by an infusion of histamine, causes a 50-70% inhibition of that acid secretion. Some variation in the biological potency of a particular sample is found if it is measured in different dogs and on different occasions, and so the result is best expressed as a dose range. The physiological effect of inhibiting the secretion of acidic gastric juice is of value in the treatment of duodenal ulcers, and under the test conditions, no serious toxic effects were observed. The polypeptides also show ulcer healing properties in a standard test. […]
Dogs were prepared with separated denervated fundic pouches, and a subcutaneous infusion of histamine was used to stimulate gastric secretion to approximately 60-80% of the maximal rate [usually an infusion of a solution of 600 μg. of histamine (expressed as base) in 0.48 ml. per hour was adequate]. […]
The specific activity may be determined from the results obtained for several different doses.

Regarding “material in fractions 38-52: hexapeptide liberated from β-urogastrone: Glu 1, Leu 1, Lys 1, Trp 2, Arg 1, lysine at the N-terminus (KWWELR; Epidermal growth factor; UniProt P01133 1018-1023, looked up, fragment)”, the “biological activity (inhibition of gastric secretion), in words” value was “biologically inactive”.

Take “material in fractions 49-65: pentapeptide liberated from γ-urogastrone: Glu 1, Leu 1, Lys 1, Trp 2, lysine at the N-terminus (KWWEL; Epidermal growth factor; UniProt P01133 1018-1022, looked up, fragment)”: the “biological activity (inhibition of gastric secretion), in words” value is “biologically inactive”.
